The text below walks through data of article PMC6770581, “New Thalidomide-Resembling Dicarboximides Target ABC50 Protein and Show Antileukemic and Immunomodulatory Activities” (Biomolecules, 2019).

Series [1] deals with MOLT-4 cells. Nature of the series: MTT cytotoxicity assay, MOLT-4. It counts as cell-based. The note with it: Homo sapiens, 48 h, mean ± SD. The protocol: (§1) Human umbilical vein endothelial cells (purchased from Life Technologies, Carlsbad, CA, USA) were cultured according to the manufacturer’s instructions in Medium 200 supplemented with Low Serum Growth Supplement. 1 × 10^4 cells were seeded on each well on a 96-well plate (Nunc, Roskilde, Denmark). The HeLa (human cervix carcinoma, cat. #93021013), CFPAC (human pancreatic adenocarcinoma, cat. #91112501), K562 (chronic myelogenous leukemia, cat. #89121407), HL-60 (acute myelogenous leukemia, cat. #98070106), and MOLT-4 (Human acute T lymphoblastic leukemia, cat. #85011413) cells were purchased from European Collection of Authenticated Cell Cultures (ECACC). They were cultured in an RPMI 1640 medium supplemented with antibiotics (streptomycin, penicillin) and 10% fetal calf serum (20% for HL60), in a 5% CO2-95% air atmosphere. 7 × 10^3 cells were seeded on each well on a 96-well plate (Nunc). 24 hours later the cells were exposed to the test compounds. The aliquots of stock solutions of the test compounds (freshly prepared in DMSO) were added to the cell cultures to yield final concentrations of 1, 10^−1, 10^−2, 10^−3, 10^−4, and 10^−5 mM. The concentration of DMSO in the cell culture medium was 1%. The IC50 value (the concentration of a test compound required to reduce the cell survival fraction to 50% of the control) was calculated from a dose-response curve and used as a measure of cellular sensitivity to a given treatment. The IC50 values are given as means (± standard deviation (SD)) from 2 independent experiments with 4 technical replicates. The cytotoxicity of all compounds was determined by the MTT (3-(4,5-dimethylthiazol-2-yl)-2,5-diphenyltetrazolium bromide) assay (Sigma, St. Louis, MO, USA). Briefly, after 24 h or 48 h of incubation with a given compound, the cells were treated with the MTT reagent and incubation was continued for 2 h. MTT-formazan crystals were dissolved in 20% SDS and 50% DMF at pH 4.7 and VIS light absorption was measured at 570 and 650 nm on a microplate reader FLUOstar Omega (BMG Labtech, Offenburg, Germany). As a control (100% viability), cells grown in the presence of 1% DMSO were used.
A general note: Tetrazolium assays rely on reduction of a dye to a coloured formazan, in cell work by metabolically active cells.

Series [2] has as its system HeLa cells. Kind of series: MTT cytotoxicity assay, HeLa. It counts as cell-based. The note with it: Homo sapiens, 48 h, mean ± SD. As to the method: as §1
In series [3] the target is T1, ABC50 (Homo sapiens, UniProt Q8NE71). Kind of series: ABC50 level by Western blotting in K562 cells (PROTAC approach). In kind it is cell-based. Set-up: endogenous in cells; host or cells: K562 cell lysate. The note with it: K562, 96 h, 7 (30 µM), 8 (15 µM), 9 (30 µM). The protocol:
(§2) Cells were lysed in TBS buffer containing 1% Triton X-100 and Complete® protease inhibitor cocktail (Roche) for 15 min on ice with occasional vortexing. Insoluble material was centrifuged (12,000 rpm, 15 min, 4 °C) and supernatants were collected. Total protein concentration was measured with DC Protein Assay (Bio-Rad, Hercules, CA, USA). Cell lysates containing 30 µg of total protein were mixed with Laemli buffer supplemented with SDS and β-mercaptoethanol, denatured (10 min, 95 °C) and subjected to sodium dodecyl sulfate polyacrylamide gel electrophoresis (SDS-PAGE) electrophoresis (4% stacking and 10% resolving gels). Resolved proteins were electrotransferred (semi-dry, 90 min, 1.5 mA/cm^2) to a 0.45 µm nitrocellulose membrane (Thermo Scientific, Waltham, MA, USA). Membranes were blocked for 2 hours in TBST buffer (20 mM Tris-HCl pH 7.5, 0.9% NaCl, 0.1% Tween 20) containing 5% BSA (BioShop, Burlington, ON, Canada) and probed with primary antibodies (overnight at 4 °C) diluted in TBST buffer with 0.5% BSA. Tubulin served as a loading control for IB experiments. Anti IKZF3 (rabbit monoclonal, dilution 1:500), anti IKZF1 (rabbit polyclonal, dilution 1:500) were from Abcam. Anti IRF4 (rabbit polyclonal, dilution 1:500) were from Cell Signaling Technology. Anti α-tubulin (mouse monoclonal IgG, 1:1000) was from Sigma Aldrich. Anti ABC50 antibodies (mouse monoclonal ABC5H06, dilution 1:100) was from Abcam. After extensive washing with TBST buffer, membranes were probed with secondary goat anti-rabbit or goat anti-mouse HRP-conjugated IgG (1:5000 in TBST, Santa Cruz Biotech, Dallas, TX, USA) for 45 min at room temperature. […] Protein bands intensities were analysed using Image Quant (version 5.0, GE Healthcare Life Sciences, Pittsburgh, PA, USA).
(§3) ABC50 was identified as the target of the test dicarboximides in the pull-down experiments. […] It must be noted that 7, 8 and 9 were evaluated as mixtures of enantiomers. K562 and HeLa cells were incubated with chimeras 7 (30 µM), 8 (15 µM) and 9 (30 µM) for 96 h and subsequently the level of ABC50 was determined by Western blotting. […]
Background: In western blotting, separated proteins are transferred to a membrane and probed.

The subject of series [4] is K562 cells. Kind of series: MTT cytotoxicity assay, K562. To be noted: Homo sapiens, 48 h, mean ± SD. In kind it is cell-based. As to the method: as §1
The subject of series [5] is HUVEC (human umbilical vein endothelial cells). Kind of series: MTT cytotoxicity assay, HUVEC. It counts as cell-based. The note with it: 48 h, mean ± SD. As to the method:
as §1

Series [6] addresses T1, ABC50. Nature of the series: ABC50 level by Western blotting in HeLa cells (PROTAC approach). Set-up: endogenous in cells. It counts as cell-based. The note with it: 96 h, 7 (30 µM), 8 (15 µM), 9 (30 µM). The protocol: as §2, §3
For series [7], the system named is K562 cells. Nature of the series: Annexin V/PI or 7-AAD flow cytometry of apoptosis, K562. In kind it is cell-based, human. The note with it: K562, 5× IC50 (3 10 µM, 6 5 µM, 5 5 µM), staurosporine 1 µM; different incubation times for 3, 6 and 5. The protocol: The phosphatidylserine on the extracellular side of cell membranes was quantified using an FITC Annexin V Apoptosis Detection Kit I (BD Pharmingen, San Diego, CA, USA) according to the manufacturer’s instruction. 10^6 cells were seeded on a 6-well plate (Nunc). […] The control cells were exposed to 1% DMSO or 1μM staurosporine. After treatment the cells were centrifuged at 700 rpm (120× g) for 5 min, washed twice with cold PBS and then resuspended in 1x binding buffer to a density of 10^6 cells/ml. 100 µL of the resuspended cells was stained in the dark with 5 μl of Annexin V-fluoroscein isothiocyanate (FITC) solution and 10 µL propidium iodide (PI) solution for 15 min at room temperature. The samples were then diluted with 400 μL of a binding buffer and within 1 h analyzed with a flow cytometer (BD FACSCalibur^TM, BD Biosciences, San Jose, CA, USA). After treatment, four populations of cells were assessed: (1) viable (neither apoptotic nor necrotic, Annexin V-FITC and PI negative), (2) apoptotic (Annexin V-FITC positive and PI negative), (3) late apoptotic (Annexin V-FITC and PI positive), and (4) necrotic (Annexin V-FITC negative and PI positive).
0.15 × 10^6 cells/ml were seeded on a 6-well plate (Nunclon, Thermo Fisher Scientific, Waltham, MA, USA). Following 24 h preincubation the cells were treated with either the compound or 1% DMSO (control) for 24 or 48 h. After indicated time, the cells were washed with cold PBS (w/o Mg^2+, Ca^2+), stained with Annexin V (FITC Annexin V Apoptosis Detection Kit with 7-aminoactinomycin D (7-AAD), Biolegend, San Diego, CA, USA) according to manufacturer instructions and analysed using BD FACSCalibur flow cytometer. Obtained Flow Cytometry Standard files were analyzed using BD FACSDiva Software (FACSDiva Version 6.1.3, Becton Dickinson Biosciences, San Jose, CA, USA). The experiment was performed three times in at least two technical replicates.
Background: In flow cytometry, cells or beads pass a laser one at a time.

T1 sequence (Q8NE71 whole entry): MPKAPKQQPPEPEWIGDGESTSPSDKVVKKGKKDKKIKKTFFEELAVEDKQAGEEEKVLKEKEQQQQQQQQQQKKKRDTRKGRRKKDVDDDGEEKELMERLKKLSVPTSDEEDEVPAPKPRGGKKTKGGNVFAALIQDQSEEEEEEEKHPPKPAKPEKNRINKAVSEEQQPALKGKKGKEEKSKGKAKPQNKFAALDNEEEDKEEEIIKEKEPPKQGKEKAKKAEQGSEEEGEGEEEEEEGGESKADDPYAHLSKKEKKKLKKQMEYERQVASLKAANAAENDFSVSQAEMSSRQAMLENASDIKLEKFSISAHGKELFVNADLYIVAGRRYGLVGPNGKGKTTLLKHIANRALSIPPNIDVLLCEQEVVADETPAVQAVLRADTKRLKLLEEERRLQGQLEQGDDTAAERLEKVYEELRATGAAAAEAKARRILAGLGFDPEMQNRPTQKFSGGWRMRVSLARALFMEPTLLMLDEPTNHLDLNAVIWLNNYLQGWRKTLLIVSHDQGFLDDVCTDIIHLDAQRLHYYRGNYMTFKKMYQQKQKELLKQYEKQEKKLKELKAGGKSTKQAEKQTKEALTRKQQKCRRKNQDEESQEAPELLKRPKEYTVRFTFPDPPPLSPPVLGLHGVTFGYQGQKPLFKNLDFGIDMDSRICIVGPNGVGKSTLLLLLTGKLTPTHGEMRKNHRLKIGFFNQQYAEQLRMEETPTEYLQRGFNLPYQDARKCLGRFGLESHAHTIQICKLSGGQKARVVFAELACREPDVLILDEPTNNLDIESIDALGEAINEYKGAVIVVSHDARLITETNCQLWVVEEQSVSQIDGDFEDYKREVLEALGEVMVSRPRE

Regarding `CC12C(=O)C(C)(C(c3ccccc3)=C1c1ccccc1)C1C(=O)N(C3CCC(=O)NC3=O)C(=O)C12` (stereo not shown) [Compound 7, 4-(2,6-dioxopiperidin-3-yl)-1,7-dimethyl-8,9-diphenyl-4-azatricyclo[5.2.1.0^2,6]dec-8-ene-3,5,10-trione], the melting point – broadly, the temperature of the solid-liquid transition – lay within 217 to 218 °C. In series [1], 150 µM corresponded to half-maximal inhibition (IC50). In addition, the IC50 – broadly, the concentration needed to halve the response being measured – in series [2] came to 180 µM. Besides, the “level of ABC50 (Western blotting)” value in series [3] is reported as “significantly reduced”. Also, in series [4], the IC50 was 170 µM. The IC50 in series [5] stood at 200 µM. In addition, the “level of ABC50 (Western blotting)” value in series [6] is given as “significantly downregulated”.
`CCC12C(=O)C(CC)(C(c3ccccc3)=C1c1ccccc1)C1C(=O)N(C3CCC(=O)NC3=O)C(=O)C12` (stereo not shown) [Compound 8, 4-(2,6-dioxopiperidin-3-yl)-1,7-diethyl-8,9-diphenyl-4-azatricyclo[5.2.1.0^2,6]dec-8-ene-3,5,10-trione] gave a melting point of 232 to 234 °C. The same compound had an IC50 in series [1] of 18 µM. Besides, in series [2], the IC50 is over 200 µM. The “level of ABC50 (Western blotting)” value in series [3] is recorded as “significantly reduced”. The same compound showed an IC50 in series [4] of 25 µM. Besides, the IC50 in series [5] came out at 65 µM. In addition, the “level of ABC50 (Western blotting)” value in series [6] is on record as “significantly downregulated”.
In turn, `O=C1CCC(N2C(=O)C3C(C2=O)C2(c4ccccc4)C(=O)C3(c3ccccc3)C(c3ccccc3)=C2c2ccccc2)C(=O)N1` (stereo not shown) [Compound 9, 4-(2,6-dioxopiperidin-3-yl)-1,7,8,9-tetraphenyl-4-azatricyclo[5.2.1.0^2,6]dec-8-ene-3,5,10-trione] gave a melting point of 230 to 232 °C. Moreover, the IC50 in series [1] is over 200 µM. This compound also registered an IC50 in series [2] of over 200 µM. Besides, the “level of ABC50 (Western blotting)” value in series [3] was “significantly reduced”. In addition, in series [4], the IC50 was over 200 µM. The IC50 in series [5] is over 200 µM. Besides, the “level of ABC50 (Western blotting)” value in series [6] is recorded as “didn’t have such pronounced effect”.
Consider `CN[C@@H]1C[C@H]2O[C@@](C)([C@@H]1OC)n1c3ccccc3c3c4c(c5c6ccccc6n2c5c31)C(=O)NC4` [staurosporine, reference compound], for which the “apoptotic cells, early (LR) and late (UR)” value in series [7] is given as “about 25%”.
